We go through two compounds from publication PMC5478271, “Chemical structure-guided design of dynapyrazoles, cell-permeable dynein inhibitors with a unique mode of action” (eLife, 2017).

Structures are written as SMILES. Read-outs that look alike come from different tables or passages of the source.

The experiment addresses T1, human cytoplasmic dynein 1 (GFP-dynein 1, AA 1320–4646) (Homo sapiens, UniProt Q14204).
T1 construct: (AA 1320–4646 with additional valine [at position 4647], uniprot Q14204); protein A tag (followed by TEV-cleavable linker) (N, cleaved yes); made in house; host or cells: insect cells (baculovirus)
Kind of experiment: Microtubule gliding (motility) assay with GFP-dynein 1. Format: biochemical. An excerpt:
To examine the inhibition of dynein 1 by dynapyrazole-A in vitro we generated recombinant human protein. We expressed and purified a GFP-tagged human dynein 1 (AA 1320–4646) construct similar to the one we used for GFP-dynein 2. […] GFP-dynein 1 moves microtubules at 508 ± 60 nm/s (n = 5 independent experiments, 191 microtubules analyzed), a velocity expected based on studies of other mammalian dynein 1 homologs ([Yamada et al., 2008]). Under these conditions, ~97% of the filaments analyzed had velocities >50 nm/s (Figure 5—figure supplement 1). […] As has been previously noted for ciliobrevin D, the potency of dynapyrazole-A was sensitive to the protein (e.g. blocking agent, serum) concentration in solution (Figure 5—figure supplement 4), likely due to the hydrophobicity of these compounds (calculated logarithm of octanol:water partition coefficient [ClogP]: ciliobrevin D: 4.5; dynapyrazole-A: 4.2) ([Firestone et al., 2012]).
Reaction setup: A coverslip-based motility assay was adapted from similar assays reported previously ([Firestone et al., 2012]; [Schmidt et al., 2015]). A flow chamber assembled on a pre-cleaned microscope coverslide (3–5 µL chamber volume) was hydrated with buffer A (25 mM PIPES, 30 mM KCl, 5 mM MgCl2, 1 mM EGTA, 0.01% Triton X-100, 1 mM DTT, 20 µM taxol, pH 7.0 with KOH). Anti-GFP antibody (0.4 mg/mL, affinity purified rabbit antibody) was flowed into the chamber and allowed to adhere non-specifically to the glass for 20 s. The surface was blocked using 0.5 mg/mL α-casein in buffer A. Excess protein was then washed away with buffer A. GFP-dynein motor domain was diluted in buffer A supplemented with 1 mM DTT and 0.1 mM ATP (2 mM DTT final; GFP-dynein 2 diluted to: 180 nM; GFP-dynein 1 diluted to: 60 nM), flowed into the chamber and allowed to bind for 20 s. Excess protein was washed away with buffer A. Reaction mix (25 mM PIPES, 90 mM KCl, 6 mM MgCl2, 1 mM EGTA, 0.01% Triton X-100, 3 mM DTT, 20 µM taxol, 1 mM ATP, 1x oxygen scavenging system components [4.5 mg/mL glucose, 35 µg/mL catalase, 200 µg/mL glucose oxidase], 2% final DMSO [v/v] with compounds at appropriate concentrations, 0.05 mg/mL α-casein, microtubules [rhodamine labeled, purified from bovine brain, GMP-CPP and Taxol-stabilized], pH 7.0 with KOH) was flowed into the chamber using ~4 chamber volumes. For experiments shown in Figure 4—figure supplement 1, α-casein concentration in reaction mix was 0.5 mg/mL and all other parameters were held constant.
For reversibility experiments, motility in the presence of 5 µM 8 was observed as above, and upon completion of imaging, the chamber, fresh buffer A supplemented with 1 mM ATP was flowed into the chamber and incubated for 1 min; this wash and incubation cycle was repeated twice. Reaction mix containing DMSO (no compound) was flowed into the chamber using ~4 chamber volumes. The chamber was sealed with valap and returned to the microscope.
Microscopy conditions: Following addition of reaction mix, microtubules were allowed to bind for 5 min before imaging. For reversibility experiments, microtubules were allowed to bind for 10 min before imaging. […] Velocities were measured using the kymograph tool in FIJI ([Schindelin et al., 2012]). […]
Microtubule velocity measurements: the tracks of microtubules were traced and converted to kymographs (x axis-displacement, y axis-time) using the kymograph function of FIJI (RRID: SCR_002285). The angle formed between an edge of a microtubule and the horizontal was measured. […]

Setting [1] is: 1 mM MgATP, 0.05 mg/mL casein, 2% DMSO, read-out: IC50, inhibition of GFP-dynein 1-driven motility.

T1 sequence (Q14204 with tags, fused parts or gaps): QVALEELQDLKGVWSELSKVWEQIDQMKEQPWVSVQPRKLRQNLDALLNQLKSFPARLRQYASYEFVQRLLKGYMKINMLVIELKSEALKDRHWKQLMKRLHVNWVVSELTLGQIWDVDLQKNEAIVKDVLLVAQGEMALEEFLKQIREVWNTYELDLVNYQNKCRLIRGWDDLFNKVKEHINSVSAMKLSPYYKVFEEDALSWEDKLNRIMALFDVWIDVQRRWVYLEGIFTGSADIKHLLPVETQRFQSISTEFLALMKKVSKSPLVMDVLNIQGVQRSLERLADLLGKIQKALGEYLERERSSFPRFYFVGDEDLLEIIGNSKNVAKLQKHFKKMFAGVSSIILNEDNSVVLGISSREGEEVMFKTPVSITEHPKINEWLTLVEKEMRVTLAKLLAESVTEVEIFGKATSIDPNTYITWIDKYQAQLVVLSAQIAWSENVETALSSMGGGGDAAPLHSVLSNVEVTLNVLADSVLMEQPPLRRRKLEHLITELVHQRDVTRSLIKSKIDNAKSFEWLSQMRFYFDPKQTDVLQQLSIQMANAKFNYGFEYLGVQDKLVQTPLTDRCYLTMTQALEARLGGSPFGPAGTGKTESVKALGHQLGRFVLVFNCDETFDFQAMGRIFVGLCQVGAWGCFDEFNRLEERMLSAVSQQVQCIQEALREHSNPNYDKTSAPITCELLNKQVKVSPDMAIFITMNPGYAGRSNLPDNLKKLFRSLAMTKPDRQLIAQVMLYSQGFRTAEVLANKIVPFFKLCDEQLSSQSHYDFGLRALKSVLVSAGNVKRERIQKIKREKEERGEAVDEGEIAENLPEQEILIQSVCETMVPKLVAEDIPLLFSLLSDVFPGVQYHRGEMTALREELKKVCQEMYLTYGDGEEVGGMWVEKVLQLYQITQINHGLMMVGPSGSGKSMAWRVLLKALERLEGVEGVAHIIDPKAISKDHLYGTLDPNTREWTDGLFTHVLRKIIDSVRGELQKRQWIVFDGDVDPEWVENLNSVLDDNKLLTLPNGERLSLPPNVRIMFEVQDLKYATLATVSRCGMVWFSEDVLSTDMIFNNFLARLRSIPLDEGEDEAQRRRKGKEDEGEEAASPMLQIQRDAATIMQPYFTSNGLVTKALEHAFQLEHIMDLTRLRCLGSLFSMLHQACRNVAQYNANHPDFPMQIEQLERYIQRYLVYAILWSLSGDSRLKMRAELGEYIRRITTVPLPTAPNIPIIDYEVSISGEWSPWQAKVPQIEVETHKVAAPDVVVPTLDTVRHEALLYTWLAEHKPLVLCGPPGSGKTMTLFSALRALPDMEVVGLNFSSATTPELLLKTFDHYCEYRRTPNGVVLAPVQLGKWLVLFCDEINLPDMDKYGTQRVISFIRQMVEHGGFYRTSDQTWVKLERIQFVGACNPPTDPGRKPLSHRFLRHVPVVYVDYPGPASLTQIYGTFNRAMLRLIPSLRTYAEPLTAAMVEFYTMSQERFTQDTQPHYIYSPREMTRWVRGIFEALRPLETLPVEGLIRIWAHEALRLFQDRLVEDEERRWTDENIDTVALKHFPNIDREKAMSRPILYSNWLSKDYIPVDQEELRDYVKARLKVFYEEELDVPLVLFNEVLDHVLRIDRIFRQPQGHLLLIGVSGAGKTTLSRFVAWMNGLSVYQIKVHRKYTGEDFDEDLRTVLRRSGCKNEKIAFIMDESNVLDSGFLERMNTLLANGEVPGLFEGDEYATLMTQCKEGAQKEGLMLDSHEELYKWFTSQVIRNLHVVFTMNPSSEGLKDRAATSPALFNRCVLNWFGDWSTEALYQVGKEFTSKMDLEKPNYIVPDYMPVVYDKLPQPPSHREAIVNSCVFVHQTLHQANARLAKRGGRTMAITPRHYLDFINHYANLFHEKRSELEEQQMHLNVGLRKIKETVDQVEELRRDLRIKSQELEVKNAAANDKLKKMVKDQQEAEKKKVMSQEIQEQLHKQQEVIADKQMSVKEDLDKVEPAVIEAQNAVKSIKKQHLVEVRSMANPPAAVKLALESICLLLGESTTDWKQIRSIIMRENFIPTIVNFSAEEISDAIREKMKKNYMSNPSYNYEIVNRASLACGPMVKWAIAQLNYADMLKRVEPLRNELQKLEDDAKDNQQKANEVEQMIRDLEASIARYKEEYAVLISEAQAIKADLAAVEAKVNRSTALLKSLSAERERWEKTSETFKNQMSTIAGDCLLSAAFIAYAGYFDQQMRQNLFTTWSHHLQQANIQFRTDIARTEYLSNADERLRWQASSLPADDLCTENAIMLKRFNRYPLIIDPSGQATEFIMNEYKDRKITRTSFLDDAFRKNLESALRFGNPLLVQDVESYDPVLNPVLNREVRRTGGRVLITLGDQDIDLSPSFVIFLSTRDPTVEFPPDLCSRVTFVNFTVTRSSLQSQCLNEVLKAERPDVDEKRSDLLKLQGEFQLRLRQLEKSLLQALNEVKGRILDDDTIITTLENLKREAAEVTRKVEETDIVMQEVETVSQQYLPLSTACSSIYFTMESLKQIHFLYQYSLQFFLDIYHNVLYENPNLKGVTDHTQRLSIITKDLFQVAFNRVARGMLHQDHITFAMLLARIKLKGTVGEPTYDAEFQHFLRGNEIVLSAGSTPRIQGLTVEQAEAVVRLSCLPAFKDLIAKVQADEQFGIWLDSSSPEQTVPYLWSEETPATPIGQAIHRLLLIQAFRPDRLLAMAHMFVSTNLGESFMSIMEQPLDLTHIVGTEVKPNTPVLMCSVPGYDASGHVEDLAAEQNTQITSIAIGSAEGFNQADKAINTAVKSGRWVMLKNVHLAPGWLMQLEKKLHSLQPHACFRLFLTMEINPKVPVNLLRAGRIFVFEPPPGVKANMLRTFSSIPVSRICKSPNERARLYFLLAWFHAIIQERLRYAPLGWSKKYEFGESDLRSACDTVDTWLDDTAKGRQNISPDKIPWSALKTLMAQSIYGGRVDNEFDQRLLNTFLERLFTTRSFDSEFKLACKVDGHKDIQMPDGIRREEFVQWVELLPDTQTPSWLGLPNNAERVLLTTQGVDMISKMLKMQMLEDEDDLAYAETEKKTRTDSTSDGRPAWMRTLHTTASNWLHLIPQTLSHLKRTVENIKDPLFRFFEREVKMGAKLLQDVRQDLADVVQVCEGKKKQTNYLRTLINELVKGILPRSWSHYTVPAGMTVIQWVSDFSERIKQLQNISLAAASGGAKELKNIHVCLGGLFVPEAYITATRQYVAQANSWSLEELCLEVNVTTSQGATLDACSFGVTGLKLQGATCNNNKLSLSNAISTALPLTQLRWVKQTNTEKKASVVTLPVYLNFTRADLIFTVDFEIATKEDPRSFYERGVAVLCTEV

Regarding `N#Cc1c(C2(c3ccc(Cl)cc3)CC2)nn2c1[nH]c(=O)c1cc(I)ccc12` [Compound 8, 2-[1-(4-chlorophenyl)cyclopropyl]-7-iodo-5-oxo-4H-pyrazolo[1,5-a]quinazoline-3-carbonitrile], the “Reversibility of inhibition of dynein-1-dependent microtubule gliding after washout” value (5 µM 8, then washout, 1 mM ATP, 0.05 mg/mL casein) is “reversed following washout”. In addition, the IC50 came to 10.5 ± 4.6 µM (1 mM ATP, 0.5 mg/mL casein, read-out: IC50, inhibition of GFP-dynein 1-driven motility in the presence of 0.5 mg/ml casein) and 2.3 ± 1.4 µM under setting [1]. Under “more potent than ciliobrevin D”, the “Potency relative to ciliobrevin D, GFP-dynein-1-driven motility” value is reported as ~ 6 fold.

Consider `N#C/C(C(=O)c1ccc(Cl)cc1Cl)=C1\NC(=O)c2ccc(Cl)cc2N1` [ciliobrevin D, reference compound], for which the IC50 under setting [1] is 15 ± 2.9 µM.
